{"source": "patent EP4810052A2", "about": "“HCRHR2 SELECTIVE POLYPEPTIDES” (Gubra A/S, priority 2023, dated 2026)", "assay": "Telemetry in Spontaneously Hypertensive Rats", "assay_type": "in vivo", "conditions": "for Heart rate / Mean arterial pressure: rats", "text": "Blood pressure and heart rate were monitored in freely moving conscious animals by […] (DSI Data Science International, MN, USA). Female adult hypertensive rats (SHR) were implanted with transmitters. After shaving the abdominal wall, a midline abdominal incision was made, and the fluid-filled sensor catheter was inserted upstream into the exposed descending aorta between the iliac bifurcation and the renal arteries. According to the DSI guidelines the tip of the telemetric catheter was located just caudal to the renal arteries and secured by tissue adhesive. The transmitter body was affixed to the inner peritoneal - 3 - wall before closure of abdomen. A two-layer closure of the abdominal incision was used, with individual suturing of the peritoneum and the muscle wall followed by closure of the outer skin. Surgery was performed under aseptic conditions. For postsurgical protection against infections and pain a single dosage of an antibiotic (Ursocyclin 10% pro inj., Serumwerk, s.c.) and analgesic were injected (Rimadyl®, 4 mg/kg s.c., Pfizer, Germany). All animals were single-housed at 22-24°C ambient temperature and maintained on a 12/12 h dark-light cycle with free access to standard laboratory rat chow and water ad libitum.\nAll animals were treated with daily s.c. doses of vehicle or SEQ ID NO: 3, (10 or 30 nmol/kg) for 7 days (1 ml/kg). Drug administration took place at 9.00 a.m. (= 0 hours). For analysis, data were grouped to provide half-hourly averages.\nFor statistical analysis, 24 hours means were calculated starting from time of dosing. All data were evaluated using a 2-way ANOVA with Dunnett's test.", "key": {"[1]": {"conditions": "SHR rats, daily s.c. 10 or 30 nmol/kg for 7 days"}}, "note": "Starred links: 1 amine or outer side, 2 acyl side, 3 side chain; linkers in the order of their positions; H or OH if unused. Residues, ends and D or L forms follow the SMILES beside them. Groups on a side chain read outwards from the residue. *: point of attachment. C20 diacid = O=C(O)CCCCCCCCCCCCCCCCCCC(=O)*; γGlu = O=C(O)[C@H](CCC(=O)[*:2])N[*:1]; AEEA = NCCOCCOCC(=O)O"}
{"smiles": "CC[C@H](C)[C@H](N)C(=O)N[C@H](C(=O)N[C@@H](CC(C)C)C(=O)N[C@@H](CO)C(=O)N[C@@H](CC(C)C)C(=O)N[C@@H](CC(=O)O)C(=O)N[C@H](C(=O)N1CCC[C@H]1C(=O)N[C@H](C(=O)NCC(=O)N[C@@H](CC(C)C)C(=O)N[C@@H](CC(C)C)C(=O)N[C@@H](CCC(N)=O)C(=O)N[C@H](C(=O)N[C@@H](CC(C)C)C(=O)N[C@@H](CC(C)C)C(=O)N[C@@H](CCC(=O)O)C(=O)N[C@@H](CCC(N)=O)C(=O)N[C@@H](C)C(=O)N[C@@H](CCCNC(=N)N)C(=O)N[C@@H](C)C(=O)N[C@@H](CCCNC(=N)N)C(=O)N[C@@H](C)C(=O)N[C@@H](C)C(=O)N[C@@H](CCCNC(=N)N)C(=O)N[C@@H](CCC(=O)O)C(=O)N[C@@H](CCC(N)=O)C(=O)N[C@@H](C)C(=O)N[C@@H](CCCCNC(=O)COCCOCCNC(=O)COCCOCCNC(=O)CC[C@H](NC(=O)CC[C@H](NC(=O)CCCCCCCCCCCCCCCCCCC(=O)O)C(=O)O)C(=O)O)C(=O)N[C@H](C(=O)N[C@@H](CC(N)=O)C(=O)N[C@@H](C)C(=O)N[C@@H](CCC(=O)O)C(=O)N[C@H](C(=O)N[C@@H](CC(C)C)C(=O)N[C@@H](C)C(=O)N[C@@H](CCC(=O)O)C(=O)N[C@H](C(N)=O)C(C)C)[C@@H](C)CC)[C@@H](C)O)[C@@H](C)CC)[C@@H](C)CC)C(C)C)C(C)C", "note": "[SEQ ID NO: 3] (H-IVLSLDVPIGLLQILLEQARARAAREQAK([AEEA-AEEA-γGlu-γGlu-C20 diacid])TNAEILAEV-NH2)", "values": [{"measurement": "HR", "setting": "[1]", "value": "transient and dose-dependent increase"}, {"measurement": "blood pressure", "setting": "[1]", "value": "transient and dose-dependent decrease"}, {"measurement": "Heart rate", "setting": "10 nmol/kg, Day 0", "value": "345.67 ± 5.3", "unit": "BPM"}, {"measurement": "Mean arterial pressure", "setting": "10 nmol/kg, Day 0", "value": "130.83 ± 2.1", "unit": "mmHg"}, {"measurement": "Heart rate", "setting": "10 nmol/kg, Day 1", "value": "330.67 ± 6.2", "unit": "BPM"}, {"measurement": "Mean arterial pressure", "setting": "10 nmol/kg, Day 1", "value": "130.33 ± 1.8", "unit": "mmHg"}, {"measurement": "Heart rate", "setting": "10 nmol/kg, Day 2", "value": "324.00 ± 5.2", "unit": "BPM"}, {"measurement": "Mean arterial pressure", "setting": "10 nmol/kg, Day 2", "value": "136.17 ± 2.0", "unit": "mmHg"}, {"measurement": "Heart rate", "setting": "10 nmol/kg, Day 3", "value": "324.00 ± 5.2", "unit": "BPM"}, {"measurement": "Mean arterial pressure", "setting": "10 nmol/kg, Day 3", "value": "139.17 ± 2.3", "unit": "mmHg"}, {"measurement": "Heart rate", "setting": "10 nmol/kg, Day 4", "value": "323.33 ± 7.4", "unit": "BPM"}, {"measurement": "Mean arterial pressure", "setting": "10 nmol/kg, Day 4", "value": "137.67 ± 2.4", "unit": "mmHg"}, {"measurement": "Heart rate", "setting": "10 nmol/kg, Day 5", "value": "320.50 ± 7.0", "unit": "BPM"}, {"measurement": "Mean arterial pressure", "setting": "10 nmol/kg, Day 5", "value": "139.00 ± 2.9", "unit": "mmHg"}, {"measurement": "Heart rate", "setting": "10 nmol/kg, Day 6", "value": "315.67 ± 7.2", "unit": "BPM"}, {"measurement": "Mean arterial pressure", "setting": "10 nmol/kg, Day 6", "value": "138.50 ± 2.4", "unit": "mmHg"}, {"measurement": "Heart rate", "setting": "10 nmol/kg, Day -1", "value": "314.50 ± 4.8", "unit": "BPM"}, {"measurement": "Mean arterial pressure", "setting": "10 nmol/kg, Day -1", "value": "145.33 ± 3.1", "unit": "mmHg"}, {"measurement": "Heart rate", "setting": "30 nmol/kg, Day 0", "value": "364.50 ± 5.4", "unit": "BPM"}, {"measurement": "Mean arterial pressure", "setting": "30 nmol/kg, Day 0", "value": "126.25 ± 2.5", "unit": "mmHg"}, {"measurement": "Heart rate", "setting": "30 nmol/kg, Day 1", "value": "334.00 ± 4.8", "unit": "BPM"}, {"measurement": "Mean arterial pressure", "setting": "30 nmol/kg, Day 1", "value": "130.00 ± 2.4", "unit": "mmHg"}, {"measurement": "Heart rate", "setting": "30 nmol/kg, Day 2", "value": "327.50 ± 2.7", "unit": "BPM"}, {"measurement": "Mean arterial pressure", "setting": "30 nmol/kg, Day 2", "value": "141.00 ± 3.1", "unit": "mmHg"}, {"measurement": "Heart rate", "setting": "30 nmol/kg, Day 3", "value": "325.88 ± 4.2", "unit": "BPM"}, {"measurement": "Mean arterial pressure", "setting": "30 nmol/kg, Day 3", "value": "142.50 ± 2.7", "unit": "mmHg"}, {"measurement": "Heart rate", "setting": "30 nmol/kg, Day 4", "value": "325.38 ± 6.4", "unit": "BPM"}, {"measurement": "Mean arterial pressure", "setting": "30 nmol/kg, Day 4", "value": "141.00 ± 3.1", "unit": "mmHg"}, {"measurement": "Heart rate", "setting": "30 nmol/kg, Day 5", "value": "323.50 ± 5.5", "unit": "BPM"}, {"measurement": "Mean arterial pressure", "setting": "30 nmol/kg, Day 5", "value": "141.75 ± 2.6", "unit": "mmHg"}, {"measurement": "Heart rate", "setting": "30 nmol/kg, Day 6", "value": "328.88 ± 5.8", "unit": "BPM"}, {"measurement": "Mean arterial pressure", "setting": "30 nmol/kg, Day 6", "value": "141.75 ± 2.7", "unit": "mmHg"}, {"measurement": "Heart rate", "setting": "30 nmol/kg, Day -1", "value": "322.38 ± 5.9", "unit": "BPM"}, {"measurement": "Mean arterial pressure", "setting": "30 nmol/kg, Day -1", "value": "148.88 ± 3.1", "unit": "mmHg"}]}
